Laboratory results: ChEMBL document CHEMBL5247646, “Discovery of 2-Aminopyrimidines as Potent Agonists for the Bitter Taste Receptor TAS2R14” (J Med Chem, 2023)

Molecular target: T1, Taste receptor type 2 member 14 (Homo sapiens, UniProt Q9NYV8)
T1 sequence (Q9NYV8 whole entry): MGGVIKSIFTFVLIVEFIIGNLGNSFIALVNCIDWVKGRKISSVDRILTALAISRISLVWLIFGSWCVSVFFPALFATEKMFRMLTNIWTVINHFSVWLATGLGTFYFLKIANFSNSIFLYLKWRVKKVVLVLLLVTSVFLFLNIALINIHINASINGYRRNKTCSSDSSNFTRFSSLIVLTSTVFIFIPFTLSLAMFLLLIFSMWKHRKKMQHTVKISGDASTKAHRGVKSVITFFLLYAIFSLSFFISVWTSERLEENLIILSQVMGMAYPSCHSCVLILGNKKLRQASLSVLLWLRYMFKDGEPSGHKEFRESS
Test: Agonist activity at human TAS2R14 transfected in HEK293T cells assessed as IP1 accumulation measured after 150 mins by IP1 accumulation assay
Format: cell-based
Conditions: not given

Structure (SMILES)	EC50 [µM]
O=C(O)c1ccccc1Nc1ccc(Br)c(C(F)(F)F)c1	0.3
Cc1cc(C(F)(F)F)nc(Nc2ccccc2-c2nnn[nH]2)n1	0.072
FC(F)(F)c1cc(I)nc(Nc2ccccc2-c2nnn[nH]2)n1	0.75
N#Cc1cc(C(F)(F)F)nc(Nc2ccccc2-c2nnn[nH]2)n1	0.3
O=C(O)c1ccccc1Nc1cncc(C(F)(F)F)c1	1.2
O=C(O)c1ccccc1Nc1cccc(OC(F)F)c1	0.93
O=C(O)c1ccccc1Nc1cc(C(F)(F)F)ccc1Br	0.64
Cc1ccc(Nc2ccccc2C(=O)O)cc1C(F)(F)F	0.33
O=C(O)c1ccccc1Nc1cccc(Cl)c1	0.95
C#Cc1cc(Nc2ccccc2C(=O)O)cc(C(F)(F)F)c1	0.15
FC(F)(F)c1nccc(Nc2ccccc2-c2nnn[nH]2)n1	1.1
O=C(O)c1ccccc1Nc1cc(Br)cc(C(F)(F)F)c1	0.23
Cc1ccc(C(F)(F)F)cc1Nc1ccccc1C(=O)O	0.39
N#Cc1cc(Nc2ccccc2C(=O)O)cc(C(F)(F)F)c1	0.18
Cc1cc(Nc2ccccc2C(=O)O)cc(C(F)(F)F)c1	0.19
O=C(O)c1ccccc1Nc1nccc(C(F)(F)F)n1	1.6

Structure (SMILES)	EC50 [µM]
FC(F)(F)c1cc(Cl)nc(Nc2ccccc2-c2nnn[nH]2)n1	0.54
FC(F)(F)c1cc(Nc2ccccc2-c2nnn[nH]2)ccn1	3.5
O=C(O)c1ccccc1Nc1cccc(S(F)(F)(F)(F)F)c1	0.19
FC(F)(F)c1ccnc(Nc2ccccc2-c2nnn[nH]2)c1	0.36
O=C(O)c1ccccc1Nc1cccc(C(F)(F)F)n1	0.67
N#Cc1ccc(C(F)(F)F)cc1Nc1ccccc1C(=O)O	0.42
FC(F)(F)c1ccnc(Nc2ccccc2-c2nnn[nH]2)n1	0.16
FC(F)(F)c1cccc(Nc2ccccc2-c2nnn[nH]2)n1	0.098
N#Cc1ccc(Nc2ccccc2C(=O)O)cc1C(F)(F)F	0.17
Oc1cc(C(F)(F)F)nc(Nc2ccccc2-c2nnn[nH]2)n1	6.8
Cc1c(Nc2ccccc2C(=O)O)cccc1C(F)(F)F	1.8
CC#Cc1cc(Nc2ccccc2C(=O)O)cc(C(F)(F)F)c1	0.38
C#Cc1cc(C(F)(F)F)nc(Nc2ccccc2-c2nnn[nH]2)n1	1.4
CC(C)(C)c1cc(C(F)(F)F)nc(Nc2ccccc2-c2nnn[nH]2)n1	0.64
O=C(O)c1ccccc1Nc1cccc(C(F)(F)F)c1Br	2.1

Molecular target: T2, Taste receptor type 2 member 14 (Homo sapiens) (UniProt Q9NYV8)
T2 sequence (whole entry): T1 sequence (Q9NYV8 whole entry)
Test: Agonist activity at human TAS2R14 transfected in HEK293T cells assessed as IP1 accumulation at 30 uM measured after 150 mins by IP1 accumulation assay relative to flufenamic acid
Format: cell-based
Conditions: not given

Structure (SMILES)	Emax [%]
O=C(O)c1cccc(Nc2cccc(C(F)(F)F)c2)c1	27

Same assay, conditions: filed as agonist

Structure (SMILES)	Emax [%]
CN(c1cccc(C(F)(F)F)c1)c1ccccc1C(=O)O	59
O=C(O)c1ccccc1Nc1cc(C#CC2CCCC2)cc(C(F)(F)F)c1	64

Molecular target: T2, Taste receptor type 2 member 14 (Homo sapiens)
Test: Agonist activity at human TAS2R14 transfected in HEK293T cells assessed as IP1 accumulation at 10 uM measured after 150 mins by IP1 accumulation assay relative to flufenamic acid
Format: cell-based
Conditions: filed as agonist

Structure (SMILES)	Emax [%]
O=C(O)c1ccccc1Nc1ccnc(C(F)(F)F)c1	52

Molecular target: T3, Alpha-2B adrenergic receptor (Homo sapiens, UniProt P18089)
T3 sequence (P18089 whole entry): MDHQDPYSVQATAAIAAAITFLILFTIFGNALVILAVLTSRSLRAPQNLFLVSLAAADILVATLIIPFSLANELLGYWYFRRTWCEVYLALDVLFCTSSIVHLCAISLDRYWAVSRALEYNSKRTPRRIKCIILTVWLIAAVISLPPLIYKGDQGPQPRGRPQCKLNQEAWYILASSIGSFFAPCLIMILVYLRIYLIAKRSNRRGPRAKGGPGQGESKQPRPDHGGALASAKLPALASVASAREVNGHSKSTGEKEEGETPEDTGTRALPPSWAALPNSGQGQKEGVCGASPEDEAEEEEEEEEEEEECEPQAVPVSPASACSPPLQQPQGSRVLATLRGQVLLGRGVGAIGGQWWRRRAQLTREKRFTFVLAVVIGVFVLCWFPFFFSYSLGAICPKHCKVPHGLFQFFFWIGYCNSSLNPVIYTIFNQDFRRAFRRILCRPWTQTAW
Test: Displacement of [3H]RX821002 from human alpha2B receptor stably expressed in HEK293T cells by Cheng-Prusoff equation analysis
Format: cell-based
Conditions: not given

Structure (SMILES)	Ki [µM]
C#Cc1cc(Nc2ccccc2C(=O)O)cc(C(F)(F)F)c1	16

Molecular target: T4, Alpha-2C adrenergic receptor (Homo sapiens, UniProt P18825)
T4 sequence (P18825 whole entry): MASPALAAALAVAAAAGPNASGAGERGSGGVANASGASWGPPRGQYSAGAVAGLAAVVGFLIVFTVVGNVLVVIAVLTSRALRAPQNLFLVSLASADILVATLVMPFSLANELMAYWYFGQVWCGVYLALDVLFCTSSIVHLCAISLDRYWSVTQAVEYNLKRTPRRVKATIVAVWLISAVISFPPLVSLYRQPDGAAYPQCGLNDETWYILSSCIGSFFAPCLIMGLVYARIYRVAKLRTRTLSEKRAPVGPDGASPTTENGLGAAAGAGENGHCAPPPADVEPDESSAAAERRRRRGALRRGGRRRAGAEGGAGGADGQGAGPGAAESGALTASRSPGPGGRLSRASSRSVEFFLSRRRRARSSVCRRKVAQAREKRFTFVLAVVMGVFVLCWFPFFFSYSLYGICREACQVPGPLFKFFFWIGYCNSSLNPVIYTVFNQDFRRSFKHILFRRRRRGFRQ
Test: Displacement of [3H]RX821002 from human alpha2C receptor stably expressed in HEK293T cells by Cheng-Prusoff equation analysis
Format: cell-based
Conditions: not given

Structure (SMILES)	Ki [µM]
C#Cc1cc(Nc2ccccc2C(=O)O)cc(C(F)(F)F)c1	17

Molecular target: T5, D(2) dopamine receptor (Homo sapiens, UniProt P14416)
T5 sequence (P14416 whole entry): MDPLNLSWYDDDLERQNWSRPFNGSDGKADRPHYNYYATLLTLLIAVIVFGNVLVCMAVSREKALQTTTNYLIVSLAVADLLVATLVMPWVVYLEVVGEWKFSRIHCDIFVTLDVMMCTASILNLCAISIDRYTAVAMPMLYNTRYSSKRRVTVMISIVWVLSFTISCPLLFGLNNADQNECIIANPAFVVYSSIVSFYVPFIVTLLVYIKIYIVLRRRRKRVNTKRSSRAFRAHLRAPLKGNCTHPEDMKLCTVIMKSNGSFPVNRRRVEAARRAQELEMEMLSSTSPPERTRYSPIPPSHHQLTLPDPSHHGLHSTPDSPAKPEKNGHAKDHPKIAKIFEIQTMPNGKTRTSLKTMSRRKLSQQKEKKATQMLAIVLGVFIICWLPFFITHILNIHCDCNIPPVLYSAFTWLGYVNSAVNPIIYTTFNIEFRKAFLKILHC
Test: Displacement of [3H]methylspiperone from human D2S receptor stably expressed in CHO cells by Cheng-Prusoff equation analysis
Format: cell-based
Conditions: not given

Structure (SMILES)	Ki [µM]
Cc1cc(C(F)(F)F)nc(Nc2ccccc2-c2nnn[nH]2)n1	7.3

Molecular target: D(3) dopamine receptor (Homo sapiens, UniProt P35462)
Sequence (P35462 whole entry): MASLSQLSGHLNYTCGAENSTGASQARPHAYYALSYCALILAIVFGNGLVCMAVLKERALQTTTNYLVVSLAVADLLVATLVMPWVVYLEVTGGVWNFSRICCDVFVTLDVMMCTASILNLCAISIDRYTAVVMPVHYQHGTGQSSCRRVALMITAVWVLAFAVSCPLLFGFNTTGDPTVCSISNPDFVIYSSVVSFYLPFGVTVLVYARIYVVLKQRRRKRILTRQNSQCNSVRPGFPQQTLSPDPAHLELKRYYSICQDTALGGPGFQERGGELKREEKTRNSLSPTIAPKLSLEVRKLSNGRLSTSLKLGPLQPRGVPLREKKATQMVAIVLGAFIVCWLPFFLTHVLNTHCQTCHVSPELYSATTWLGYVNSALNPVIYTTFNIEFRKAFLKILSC
Test: Displacement of [3H]methylspiperone from human D3 receptor stably expressed in HEK293T cells by Cheng-Prusoff equation analysis
Format: cell-based
Conditions: not given

Structure (SMILES)	Ki [µM]
Cc1cc(C(F)(F)F)nc(Nc2ccccc2-c2nnn[nH]2)n1	1.1

Molecular target: T5, D(2) dopamine receptor
Test: Displacement of [3H]methylspiperone from human D2L receptor stably expressed in CHO cells by Cheng-Prusoff equation analysis
Format: cell-based
Conditions: not given

Structure (SMILES)	Ki [µM]
Cc1cc(C(F)(F)F)nc(Nc2ccccc2-c2nnn[nH]2)n1	16

Molecular target: T6, Muscarinic acetylcholine receptor M2 (Homo sapiens, UniProt P08172)
T6 sequence (P08172 whole entry): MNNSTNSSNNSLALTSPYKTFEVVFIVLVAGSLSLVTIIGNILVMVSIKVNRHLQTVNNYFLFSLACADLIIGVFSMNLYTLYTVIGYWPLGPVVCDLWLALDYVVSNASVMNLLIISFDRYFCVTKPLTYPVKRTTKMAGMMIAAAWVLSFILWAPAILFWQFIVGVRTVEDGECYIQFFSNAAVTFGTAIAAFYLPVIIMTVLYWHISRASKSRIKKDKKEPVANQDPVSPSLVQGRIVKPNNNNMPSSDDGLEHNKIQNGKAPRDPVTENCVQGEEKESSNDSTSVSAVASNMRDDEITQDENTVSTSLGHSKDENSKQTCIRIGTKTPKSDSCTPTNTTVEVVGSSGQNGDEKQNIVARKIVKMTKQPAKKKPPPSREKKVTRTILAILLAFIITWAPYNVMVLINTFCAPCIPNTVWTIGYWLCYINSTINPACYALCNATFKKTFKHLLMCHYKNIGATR
Test: Displacement of [3H]NMS from human M2 receptor stably expressed in HEK293T cells by Cheng-Prusoff equation analysis
Format: cell-based
Conditions: not given

Structure (SMILES)	Ki [µM]
Cc1cc(C(F)(F)F)nc(Nc2ccccc2-c2nnn[nH]2)n1	2.3

Molecular target: T1, Taste receptor type 2 member 14
Test: Partial agonist activity at human TAS2R14 transfected in HEK293T cells assessed as IP1 accumulation measured after 150 mins by IP1 accumulation assay
Format: cell-based
Conditions: not given

Structure (SMILES)	EC50 [µM]
FC(F)(F)c1cc(Nc2ccccc2-c2nnn[nH]2)cc(C(F)(F)F)c1	0.1

Molecular target: T2, Taste receptor type 2 member 14 (Homo sapiens)
Test: Partial agonist activity at human TAS2R14 transfected in HEK293T cells assessed as IP1 accumulation measured after 150 mins by IP1 accumulation assay relative to control
Format: cell-based
Conditions: filed as partial agonist

Structure (SMILES)	Emax [%]
FC(F)(F)c1cc(Nc2ccccc2-c2nnn[nH]2)cc(C(F)(F)F)c1	80
